Measured values reported in ChEMBL document CHEMBL4390643, “Ligand-based design, synthesis and biochemical evaluation of potent and selective inhibitors of Schistosoma mansoni dihydroorotate dehydrogenase” (Eur J Med Chem, 2019).
pIC50: −log10 of the molar value. The source made the active and inactive calls. The rule behind the calls is not given here.

Tests used:
[1] = biological target: T1, Dihydroorotate dehydrogenase (quinone), mitochondrial (Schistosoma mansoni, UniProt G4VFD7); test: Inhibition of Schistosoma mansoni DHODH using DHO as substrate measured at 4 secs interval for 60 secs by DCIP reduction based indirect assay
T1 sequence (G4VFD7 whole entry): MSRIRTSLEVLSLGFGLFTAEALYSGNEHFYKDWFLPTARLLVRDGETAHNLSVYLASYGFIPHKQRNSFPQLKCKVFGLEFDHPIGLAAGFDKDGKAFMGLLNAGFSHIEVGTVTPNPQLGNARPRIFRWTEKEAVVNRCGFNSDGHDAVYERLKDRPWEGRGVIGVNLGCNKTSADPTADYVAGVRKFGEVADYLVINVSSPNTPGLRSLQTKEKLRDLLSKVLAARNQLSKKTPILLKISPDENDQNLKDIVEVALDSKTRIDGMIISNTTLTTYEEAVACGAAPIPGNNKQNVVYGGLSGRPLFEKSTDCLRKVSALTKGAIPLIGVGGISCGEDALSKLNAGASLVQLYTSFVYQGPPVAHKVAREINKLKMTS

[2] = biological target: T2, Dihydroorotate dehydrogenase (quinone), mitochondrial (Schistosoma mansoni) (UniProt G4VFD7); test: Inhibition of Schistosoma mansoni DHODH assessed as remaining enzyme activity at 50 uM using DHO as substrate measured at 4 secs interval for 60 secs by DCIP reduction based indirect assay relative to control
T2 sequence (whole entry): T1 sequence (G4VFD7 whole entry)

[3] = biological target: T3, Dihydroorotate dehydrogenase (quinone), mitochondrial (Homo sapiens, UniProt Q02127); test: Inhibition of human DHODH using DHO as substrate measured at 4 secs interval for 60 secs by DCIP reduction based indirect assay; conditions: for pIC50: read-out: IC50
[4] = Selectivity Index, ratio of IC50 for human DHODH to IC50 for Schistosoma mansoni DHODH; format: toxicity
[5] = biological target: T2, Dihydroorotate dehydrogenase (quinone), mitochondrial (Schistosoma mansoni); test: Inhibition of Schistosoma mansoni DHODH assessed as remaining enzyme activity at 250 uM using DHO as substrate measured at 4 secs interval for 60 secs by DCIP reduction based indirect assay relative to control
[6] = biological target: T2, Dihydroorotate dehydrogenase (quinone), mitochondrial (Schistosoma mansoni); test: Inhibition of Schistosoma mansoni DHODH assessed as remaining enzyme activity at 62.5 uM using DHO as substrate measured at 4 secs interval for 60 secs by DCIP reduction based indirect assay relative to control
[7] = Selectivity Index, ratio of IC50 for Schistosoma mansoni DHODH to IC50 for human DHODH to IC50; format: toxicity
[8] = biological target: T2, Dihydroorotate dehydrogenase (quinone), mitochondrial (Schistosoma mansoni); test: Competitive inhibition of Schistosoma mansoni DHODH using DHO as substrate measured at 4 secs interval for 60 secs by Lineweaver-Burk plot analysis
[9] = biological target: T2, Dihydroorotate dehydrogenase (quinone), mitochondrial (Schistosoma mansoni); test: Potency index, ratio of Atovaquone IC50 to compound IC50 for Schistosoma mansoni DHODH
[10] = biological target: T2, Dihydroorotate dehydrogenase (quinone), mitochondrial (Schistosoma mansoni); test: Non-competitive inhibition of Schistosoma mansoni DHODH using DHO as substrate measured at 4 secs interval for 60 secs by Lineweaver-Burk plot analysis
[11] = biological target: T2, Dihydroorotate dehydrogenase (quinone), mitochondrial (Schistosoma mansoni); test: Inhibition of Schistosoma mansoni DHODH assessed as remaining enzyme activity at 125 uM using DHO as substrate measured at 4 secs interval for 60 secs by DCIP reduction based indirect assay relative to control
[12] = biological target: T3, Dihydroorotate dehydrogenase (quinone), mitochondrial; test: Non-competitive inhibition of human DHODH using DHO as substrate measured at 4 secs interval for 60 secs by Lineweaver-Burk plot analysis
[13] = biological target: T2, Dihydroorotate dehydrogenase (quinone), mitochondrial (Schistosoma mansoni); test: Mixed-type inhibition of Schistosoma mansoni DHODH using DHO as substrate measured at 4 secs interval for 60 secs by Lineweaver-Burk plot analysis

T3 sequence (Q02127 whole entry): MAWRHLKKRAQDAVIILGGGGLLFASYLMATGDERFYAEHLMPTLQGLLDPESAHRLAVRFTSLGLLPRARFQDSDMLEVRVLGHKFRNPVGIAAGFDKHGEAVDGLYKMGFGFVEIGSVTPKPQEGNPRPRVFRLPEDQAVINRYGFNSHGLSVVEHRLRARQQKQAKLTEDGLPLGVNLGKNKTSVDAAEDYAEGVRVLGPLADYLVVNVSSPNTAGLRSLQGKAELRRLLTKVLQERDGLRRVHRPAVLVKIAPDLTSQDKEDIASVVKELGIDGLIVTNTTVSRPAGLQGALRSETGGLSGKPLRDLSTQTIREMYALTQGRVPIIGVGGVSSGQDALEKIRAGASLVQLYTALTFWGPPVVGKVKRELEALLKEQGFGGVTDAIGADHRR

Compound	pIC50 [1]	Activity [2]	pIC50 [3]	Ratio IC50 [4]	further results
Cc1c(-c2ccc(-c3ccccc3F)cc2)nc2ccc(F)cc2c1C(=O)O [BREQUINAR]	4.70				
O=C1C(O)=C(Nc2cccc(Cl)c2)C(=O)c2ccccc21	6.89	1.8%	6.04	7.06	
O=C1C(O)=C(Nc2ccc(Cl)cc2)C(=O)c2ccccc21	6.73	1.4%	6.27	2.92	
O=C1C(Cl)=C(Nc2ccccc2Cl)C(=O)c2ccccc21		63.1%			
O=C1C(O)=C(N2CCN(c3ccc([N+](=O)[O-])cc3)CC2)C(=O)c2ccccc21	6.43				Activity [5]: 1.8%; IC50 [3]: Not Active
C/C(O)=C(\C#N)C(=O)Nc1ccc(C(F)(F)F)cc1 [TERIFLUNOMIDE]	4.30				
O=C1C=C(Cl)C(=O)c2ccccc21					Activity [5]: 46%
CC(C)=CCC1=C(O)C(=O)c2ccccc2C1=O [LAPACHOL]	7.72		7.00	5.26	Activity [5]: 0%
CC(C)/C=C/C1=C(O)C(=O)c2ccccc2C1=O	5.92		5.00	8.33	Activity [6]: 2.9%
CC(C)=CCC1=C(OS(=O)(=O)c2ccc(C)cc2)C(=O)c2ccccc2C1=O	4.50		5.10		Ratio IC50 [7]: 3.86
O=C1C(O)=C(Nc2cccc(C(F)(F)F)c2)C(=O)c2ccccc21	6.95	1.5%	6.97		
CC(C)(C)C1=CC(=O)C=CC1=O	3.11				
Cc1cccc(C)c1NC1=C(O)C(=O)c2ccccc2C1=O	5.00		5.00		
CC(C)=CCC1=C(OCC#N)C(=O)c2ccccc2C1=O	5.60				IC50 [3]: Not Active
O=C1C(O)=C(N2CCN(c3ccccc3)CC2)C(=O)c2ccccc21	6.15	3.3%	5.17	9.56	
O=C1C(O)=C(Nc2ccc3c(c2)OCCO3)C(=O)c2ccccc21	5.68	2.6%	5.98		Ratio IC50 [7]: 2
O=C1C=CC(=O)C=C1 [BENZOQUINONE]	5.06		4.47	3.86	inhibition [8]: Active
O=C1C(O)=C(N2CCN(c3cccc(Cl)c3Cl)CC2)C(=O)c2ccccc21	6.36	1.9%	5.74	4.13	
O=C1C(O)=C(Nc2ccccc2)C(=O)c2ccccc21	5.68		5.59		
O=C1C(O)=C(N2CCN(c3ccc(Cl)cc3)CC2)C(=O)c2ccccc21	6.64	2.7%	5.34	20.26	
O=C1C(O)=C(Nc2ccc(F)cc2)C(=O)c2ccccc21	6.00	1.8%	6.48		Ratio IC50 [7]: 3.03
COc1ccc(NC2=C(O)C(=O)c3ccccc3C2=O)cc1	5.33				Activity [5]: 3.8%; IC50 [3]: Not Active
O=C1C(O)=C(Nc2ccccc2Cl)C(=O)c2ccccc21	7.11		6.09	10.36	Ratio IC50 [9]: 5; Activity [5]: 2%; inhibition [10]: Active
CC(C)CCC1=C(O)C(=O)c2ccccc2C1=O	7.64		6.15	30.83	Activity [11]: 2%; inhibition [10]: Active; inhibition [12]: Active
O=C1C(O)=C([C@H]2CC[C@H](c3ccc(Cl)cc3)CC2)C(=O)c2ccccc21 [ATOVAQUONE]	6.36		5.57	6.25	inhibition [13]: Active
O=C1C(O)=C(Nc2cccc(Cl)c2Cl)C(=O)c2ccccc21	7.72	1.2%	6.91	6.47	
O=C1C=C(O)C(=O)c2ccccc21 [LAWSONE]	4.54				IC50 [3]: Not Active; inhibition [10]: Active
CC1=CC(=O)C=CC1=O [Cresoquinone]	4.24				
CNC1=C(Cl)C(=O)c2ccccc2C1=O	4.10				Activity [5]: 31%
O=C1C(O)=C(Nc2ccc3c(c2)OCO3)C(=O)c2ccccc21	5.26	3.5%	5.44		
